Assays:
Assay type in all cases: functional
[1] = test system: Escherichia coli; experiment: Antimicrobial activity against Escherichia coli IMP BAS901 assessed as reduction in microbial growth after 24 hrs by CLSI based broth microdilution method
[2] = test system: Staphylococcus aureus; experiment: Antimicrobial activity against methicillin-resistant Staphylococcus aureus USA300 assessed as reduction in microbial growth after 24 hrs by CLSI based broth microdilution method
[3] = test system: Staphylococcus epidermidis; experiment: Antimicrobial activity against Staphylococcus epidermidis RP62A assessed as reduction in microbial growth after 24 hrs by CLSI based broth microdilution method
[4] = test system: Yersinia pestis; experiment: Antimicrobial activity against Yersinia pestis KIM6+ assessed as reduction in microbial growth after 24 hrs by CLSI based broth microdilution method
[5] = test system: Escherichia coli; experiment: Antimicrobial activity against Escherichia coli K-12 assessed as reduction in microbial growth after 24 hrs by CLSI based broth microdilution method

SMILES | MIC [1] [µg/mL] | MIC [2] [µg/mL] | MIC [3] [µg/mL] | MIC [4] [µg/mL] | MIC [5] [µg/mL]
CCCCCCCCCCCCCCCC(=O)NCCC(=O)N[C@H](CS(=O)(=O)O)C(=O)N(C)[C@@H]1C(=O)N[C@@H](C)C(=O)N[C@H](C(=O)O)Cc2ccc(OS(=O)(=O)O)c(c2)-c2cc1cc(OS(=O)(=O)O)c2O[C@@H]1O[C@@H](C)[C@H](O)[C@@H](O)[C@H]1O | > 64 | > 64 | > 64 | > 64 | 
CCCCCCCCCCCCCCCC(=O)N(C)[C@H](CO)C(=O)N[C@H](C)C(=O)NCC(=O)N(C)[C@@H]1C(=O)N[C@@H](C)C(=O)N[C@H](C(=O)O)Cc2ccc(OS(=O)(=O)O)c(c2)-c2cc1cc(OS(=O)(=O)O)c2O[C@@H]1O[C@@H](C)[C@H](O)[C@@H](O)[C@H]1O | > 64 | > 64 | > 64 | > 64 | 
CCCCCCCCCCCCCCCC(=O)NCCC(=O)N[C@@H](CS(=O)(=O)O)C(=O)N(C)[C@@H]1C(=O)N[C@@H](C)C(=O)N[C@H](C(=O)O)Cc2ccc(OS(=O)(=O)O)c(c2)-c2cc1cc(OS(=O)(=O)O)c2O[C@@H]1O[C@@H](C)[C@H](O)[C@@H](O)[C@H]1O | > 64 | > 64 | > 64 | > 64 | 
CCCCCCCCCCCCCCCC(=O)NCCC(=O)N[C@@H](CS(=O)(=O)O)C(=O)N(C)[C@@H]1C(=O)N[C@@H](C)C(=O)N[C@H](C(=O)O)Cc2ccc(O)c(c2)-c2cc1cc(O)c2O[C@@H]1O[C@@H](C)[C@H](O)[C@@H](O)[C@H]1O | 64 | 32 | 8 | 4 | > 64
CCCCCCCCCCCCCCCC(=O)NCCC(=O)N[C@@H](CS(=O)(=O)O)C(=O)N(C)[C@@H]1C(=O)N[C@@H](C)C(=O)N[C@H](C(=O)O)Cc2ccc(O)c(c2)-c2cc1ccc2O | > 64 | 16 | 4 | 2 | > 64
CCCCCCCCCCCCCCCC(=O)N(C)[C@H](CO)C(=O)N[C@H](C)C(=O)NCC(=O)N(C)[C@@H]1C(=O)N[C@@H](C)C(=O)N[C@H](C(=O)O)Cc2ccc(O)c(c2)-c2cc1ccc2O [ARYLOMYCIN C16] | 16 | > 64 | 0.25 |  | > 64
